The text below walks through data of paper PMC11440508, “Dually Labeled Neurotensin NTS1R Ligands for Probing Radiochemical and Fluorescence-Based Binding Assays” (Journal of Medicinal Chemistry, 2024).

The assay concerns the target NTS1R (Homo sapiens, UniProt P30989). In words: Radiochemical association and dissociation kinetics, adherent CHO-hNTS1R cells. Format: binding. The method, then: Binding of both ligands, [^3H]13 and [^3H]18, was studied at adherent and suspended intact CHO-hNTS1R cells, and binding of [^3H]13 was additionally studied using CHO-hNTS1R cell membrane preparations (saturation and competition binding, kinetic studies). Furthermore, saturation binding experiments were performed with both ligands at intact adherent HT-29 cells. All experiments were performed in triplicate except for dissociation experiments performed with suspended cells in 50 mL flacon tubes (performed in duplicate). To reduce radioligand consumption in the aforementioned experiments, [^3H]13 and [^3H]18 were 1:1 diluted with 13 and 18, respectively (for the purpose of easier reading these mixtures are denoted "[^3H]13" and "[^3H]18"in the following). All samples were incubated at 23 ± 1 °C in the dark under gentle shaking (incubation times are outlined below). DPBS1 served as binding buffer throughout. In the case of experiments performed with cell suspensions, CHO-hNTS1R cells were seeded in T75 culture flasks 3–4 days prior to the experiment. On the day of the experiment, cells were detached by trypsinization, suspended in DPBS1 and centrifuged at 200g at rt for 5 min. Cells were resuspended in binding buffer and the cell density was adjusted to 1.5 × 10^5 to 2.5 × 10^5 cells/mL. Samples involving suspended cells or membrane preparations were prepared and incubated in 96-well polypropylene plates (Brand 701330, Wertheim, Germany) or in 50 mL polypropylene falcon tubes (Sarstedt), and the same filtration procedure for separating free radioligand from cell- or membrane bound radioligand was applied for all kind of binding experiments: after completed incubation, cells or cell membranes were collected on GF/C filter mats (0.26 mm; Whatman, Maidstone, U.K.) (pretreated with 0.3% polyethylenimine for 30 min) using an in-house manufactured harvester for 96-well plates (precision engineering workshop of the University of Regensburg, Regensburg, Germany), and the wells of the plate and the cells on the filter mat were immediately washed twice with ice-cold PBS (2 × 200 μL) (note: when samples were incubated in falcon tubes, 200-μL aliquots were transferred to the wells of a 96-well polypropylene plate after the incubation period, immediately followed by the filtration procedure). Filter pieces for each well were punched out and transferred into 1450–401 96-well sample plates (PerkinElmer, Rodgau, Germany), followed by the addition of Rotiscint Routine (Carl Roth, Karlsruhe, Germany) (200 μL). The plates were sealed with transparent sealing tape (Greiner EASYseal, part no. 676001, Greiner Bio-One) and shaken in the dark overnight before measurement of the radioactivity (dpm) using a MicroBeta2 plate counter equipped with six pairs of photomultiplier tubes (PerkinElmer).
For experiments involving adherent cells, CHO-hNTS1R (25,000 cells per well) or HT-29 (35,000 cells per well) cells were seeded one day prior to the experiment in white 96-well plates with clear bottom (VWR 732–3740). On the day of the experiment, the medium was aspirated and the cells (confluency: 70–90%) were washed with PBS (200 μL) followed by covering with DPBS1 (160 μL) and the addition of the ligands as outlined below. After completed incubation, the liquid was aspirated and the wells were washed twice with ice-cold PBS (200 μL) followed by the addition of lysis solution (urea (8 M), acetic acid (3 M) and Triton-X (1%) in water) (25 μL). After shaking for at least 20 min, liquid scintillator (UltimaGold, PerkinElmer) (200 μL) was added and the plates were sealed with a transparent sealing tape (permanent seal for microplates, PerkinElmer, prod. no. 1450–461). The sealed plates were turned upside down several times to achieve complete mixing of scintillator and lysis solution and were kept in the dark for at least 3 h before measurement of the radioactivity (dpm) with the MicroBeta2 plate counter. […]

Sequence of NTS1R (P30989 whole entry): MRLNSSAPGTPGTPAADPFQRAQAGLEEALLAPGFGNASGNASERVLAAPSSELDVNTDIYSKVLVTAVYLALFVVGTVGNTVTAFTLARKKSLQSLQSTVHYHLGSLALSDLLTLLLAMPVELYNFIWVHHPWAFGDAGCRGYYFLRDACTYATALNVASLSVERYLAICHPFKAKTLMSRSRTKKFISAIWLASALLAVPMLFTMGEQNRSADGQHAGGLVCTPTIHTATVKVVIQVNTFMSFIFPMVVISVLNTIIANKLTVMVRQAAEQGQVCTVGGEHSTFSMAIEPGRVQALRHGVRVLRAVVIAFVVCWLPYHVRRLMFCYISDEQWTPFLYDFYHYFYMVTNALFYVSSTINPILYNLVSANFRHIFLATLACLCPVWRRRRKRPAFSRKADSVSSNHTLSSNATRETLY

Consider `CCC(=O)NCCCCNC(=O)NC(=N)NCCC[C@H](NC(=O)[C@@H]1CCCN1C(=O)[C@@H](NC(=O)CCc1cn(CCCNC(=O)c2ccc(-c3c4ccc(=[N+](C)C)cc-4oc4cc(N(C)C)ccc34)c(C(=O)[O-])c2)nn1)C1CCNCC1)C(=O)N[C@@H](CCCNC(=N)N)C(=O)N1CCC[C@H]1C(=O)N[C@@H](Cc1ccc(O)cc1)C(=O)N[C@H](C(=O)N[C@@H](CC(C)C)C(=O)O)[C@@H](C)CC` [[^3H]13], for which the koff (adherent CHO-hNTS1R cells, 23 °C, read-out: koff [min^–1] (converted)) is 0.000233 s⁻¹. For the same compound, the “kobs(slow) [min^–1]” value (adherent CHO-hNTS1R cells, biphasic exponential fit) is 0.011 ± 0.001 ^b min^–1. Moreover, under “adherent CHO-hNTS1R cells, calculated from koff, kobs(fast) and ligand concentration, read-out: kon(fast) [min^–1 nM^–1] (converted)”, the kon was 5.5e+06 M⁻¹ s⁻¹. Also, for the setting “adherent CHO-hNTS1R cells, koff/kon(fast), read-out: Kd(kin)”, the Kd was found to be 0.41 ± 0.24 nM. Moreover, the “kobs(fast) [min^–1]” value (adherent CHO-hNTS1R cells, monophasic fit of initial association phase, 1.3 nM [^3H]13 or […] [^3H]18) is 0.57 ± 0.08 ^a min^–1. Further, for the setting “adherent cells”, the “Proportion of fast kinetic component (association)” value is on record as 19% and the “Proportion of slow kinetic component (association)” value was 81%.
